The record followed here is US20210023089A1, “Compositions Useful for Treating Herpes Simplex Keratitis, and Methods Using Same” (priority 2013, published 2021).

The subject of the experiment is HSV-1. The experiment can be described thus: Western blot of viral proteins in HSV-1 infected hTCEpi cells. As to conditions: MOI 0.1, 10 μM, 16 hpi. The format is cell-based, HSV-1 (KOS strain). How it is done: The following strains of HSV-1 were used: KOS, ICPO-null, HFEM, and tsB7. Subconfluent monolayers of cells were grown in six-well plates. Drug treatments were administered 45 minutes prior to infection and continued for the entire duration of each experiment. Unless indicated otherwise, KU-55933 (Batch No. 5, 99.7% purity; Tocris Bioscience, Bristol, UK) was used at 10 μM final concentration, phosphonoacetic acid (PAA) at 400 μg/mL (Sigma-Aldrich, St. Louis, Mo.), and acyclovir at 50 μg/mL (Sigma-Aldrich). KU-55933 was dissolved in dimethyl sulfoxide (DMSO), and the final concentration of DMSO in both KU-55933 and mock treatment in the in vitro and the ex vivo experiments was 0.1%.
Standard protocol was followed for Western blot analysis. Cell lysates were collected in 200 μL Laemmli buffer, vortexed, and boiled at 95° C. for 5 minutes. Protein concentrations were measured by bicinchoninic acid (BCA) assay. SDS-PAGE was followed by transfer onto a polyvinylidene difluoride (PVDF) membrane, which was then blocked in 5% BSA. […]

Turning to `O=c1cc(-c2cccc3c2Sc2ccccc2S3)oc(N2CCOCC2)c1` [KU-55933, 2-(morpholin-4-yl)-6-(thianthren-1-yl)-pyran-4-one], the “levels of viral proteins (Western blot)” value was “pronounced decrease”.
